Assay results: US7700609B2, “Compositions useful as inhibitors of protein kinases” (Vertex Pharmaceuticals Incorporated, priority 2003, dated 2010)

Assays:
Itk [1] = molecular target: T1, Itk (Homo sapiens, UniProt Q08881); assay: Itk inhibition assay: Alphascreen (Method B); type: biochemical; details: 100 μM ATP
T1 sequence (Q08881 1-620): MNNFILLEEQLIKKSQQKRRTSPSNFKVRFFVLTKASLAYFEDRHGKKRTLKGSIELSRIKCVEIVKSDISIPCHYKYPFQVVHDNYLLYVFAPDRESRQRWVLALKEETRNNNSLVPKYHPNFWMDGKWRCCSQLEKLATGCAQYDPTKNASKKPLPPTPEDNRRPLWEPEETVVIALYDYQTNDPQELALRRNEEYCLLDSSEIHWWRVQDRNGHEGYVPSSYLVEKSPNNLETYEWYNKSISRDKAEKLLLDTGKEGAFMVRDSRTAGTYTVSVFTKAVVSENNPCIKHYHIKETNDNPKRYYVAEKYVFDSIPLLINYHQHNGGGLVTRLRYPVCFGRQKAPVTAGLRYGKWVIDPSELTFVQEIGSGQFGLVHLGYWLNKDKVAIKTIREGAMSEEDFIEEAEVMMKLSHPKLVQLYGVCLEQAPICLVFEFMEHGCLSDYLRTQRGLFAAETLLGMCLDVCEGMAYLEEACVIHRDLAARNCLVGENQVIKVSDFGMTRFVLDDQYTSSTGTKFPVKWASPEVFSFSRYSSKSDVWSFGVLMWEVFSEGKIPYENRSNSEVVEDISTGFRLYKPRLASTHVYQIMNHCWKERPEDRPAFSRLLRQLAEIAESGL
Method: (§1) The compounds of the present invention were evaluated as inhibitors of human Itk kinase using either a radioactivity-based, spectrophotometric or alphascreen assay.
Assays were carried out in a mixture of 20 mM MOPS (pH 7.0), 10 mM MgCl2, 0.1% BSA and 1 mM DTT. Final substrate concentrations in the assay were 100 μM ATP (Sigma Chemicals) and 2 μM peptide (Biotinylated SAM68 Δ332-443). Assays were carried out at 25° C. and in the presence of 10 nM Itk. An assay stock buffer solution was prepared containing all of the reagents listed above, with the exception of ATP and the test compound of interest. 25 μL of the stock solution was placed in each well of a 96 well plate followed by 1 μL of DMSO containing serial dilutions of the test compound (typically starting from a final concentration of 15 μM) in duplicate (final DMSO concentration 2%). The plate was preincubated for 10 minutes at 25° C. and the reaction initiated by addition of 25 μL ATP (final concentration 100 μM). Background counts were determined by the addition of 5 μL 500 mM EDTA to control wells containing assay stock buffer and DMSO prior to initiation with ATP. The reaction was stopped after 30 minutes by diluting the reaction 225-fold into MOPS buffer (20 mM MOPS (pH 7.0), 1 mM DTT, 10 mM MgCl2, 0.1% BSA) containing 50 mM EDTA to bring the final concentration of peptide to 9 nM.
AlphaScreen™ reagents were prepared according to the manufacturers instructions (AlphaScreen™ phosphotyrosine (P-Tyr-100) assay kit, PerkinElmer catalogue number 6760620C). Under subdued lighting, 20 μL of AlphaScreen™ reagents were placed in each well of a white half area 96 well plate (Corning Inc.—COSTAR 3693) with 30 μL of the stopped, diluted kinase reactions. Plates were incubated in the dark for 60 minutes prior to reading on a Fusion Alpha plate reader (PerkinElmer).
After removing mean background values for all of the data points, Ki(app) data were calculated from non-linear regression analysis using the Prism software package (GraphPad Prism version 3.0cx for Macintosh, GraphPad Software, San Diego Calif., USA).

Itk [2] = molecular target: T1, Itk; assay: Itk inhibition assay: spectrophotometric coupled enzyme (Method C); type: biochemical; details: 100 μM ATP, read-out: Ki in the standard coupled enzyme assay (Method C)
Method: as §1
Compounds were screened for their ability to inhibit Itk using a standard coupled enzyme assay (Fox et al., Protein Sci., (1998) 7, 2249).
Assays were carried out in a mixture of 20 mM MOPS (pH 7.0), 10 mM MgCl2, 0.1% BSA, 1 mM DTT, 2.5 mM phosphoenolpyruvate, 300 μM NADH, 30 μg/ml pyruvate kinase and 10 μg/ml lactate dehydrogenase. Final substrate concentrations in the assay were 100 μM ATP (Sigma Chemicals) and 3 μM peptide (Biotinylated SAM68 Δ332-443). Assays were carried out at 25° C. and in the presence of 10 nM Itk.
An assay stock buffer solution was prepared containing all of the reagents listed above, with the exception of ATP and the test compound of interest. 60 μl of the stock solution was placed in a 96 well plate followed by addition of 2 μl of DMSO stock containing serial dilutions of the test compound (typically starting from a final concentration of 15 μM). The plate was preincubated for 10 minutes at 25° C. and the reaction initiated by addition of 5 μl of ATP. Initial reaction rates were determined with a Molecular Devices SpectraMax Plus plate reader over a 10 minute time course. IC50 and Ki data were calculated from non-linear regression analysis using the Prism software package (GraphPad Prism version 3.0cx for Macintosh, GraphPad Software, San Diego Calif., USA).

Structure (SMILES) | Ki (Itk [1]) [nM] | Ki (Itk [2]) [nM]
CN1CCN(C(=O)c2cc3c(ccc4cnc(Nc5ccccc5)nc43)s2)CC1 [Compound V-50] | < 1000 | –
NS(=O)(=O)c1cccc(Nc2ncc3ccc4nc(N5CCCCC5)sc4c3n2)c1 [II-39] | < 1000 | –
CN(C)/C=N/S(=O)(=O)c1cccc(Nc2ncc3c(n2)-c2sc(N4CCN(C)CC4)nc2CC3)c1 [III-40] | < 1000 | –
CC(C)(C)OC(=O)NC1CCN(C(=O)c2cc3c(ccc4cnc(Nc5cccc(S(N)(=O)=O)c5)nc43)s2)CC1 [Compound V-46] | < 1000 | –
COc1cccc(-c2cc3c(s2)CCc2cnc(Nc4cccc(NC(C)=O)c4)nc2-3)c1 [Compound I-36] | < 1000 | –
NS(=O)(=O)c1cccc(Nc2ncc3c(n2)-c2sc(N4CCOCC4)nc2CC3)c1 [III-32] | < 1000 | –
NS(=O)(=O)c1cccc(Nc2ncc3ccc4nc(N5CCOCC5)sc4c3n2)c1 [II-37] | < 1000 | –
CN1CCN(c2nc3c(s2)-c2nc(Nc4cccc(S(N)(=O)=O)c4)ncc2CC3)CC1 [III-39] | < 1000 | –
CC1CN(C(=O)c2cc3c(ccc4cnc(Nc5cccc(S(C)(=O)=O)c5)nc43)s2)CC(C)N1 (stereo not shown) [Compound V-137] | – | < 1000
O=C(c1cc2c(ccc3cnc(Nc4cccc(N5CCNCC5)c4)nc32)s1)N1CCNCC1 [Compound V-113] | – | < 1000
O=C(c1cc2c(ccc3cnc(NCCc4cccnc4)nc32)s1)N1CCNCC1 [Compound V-173] | – | < 1000
O=C(c1cc2c(ccc3cnc(NCCc4c[nH]cn4)nc32)s1)N1CCNCC1 [Compound V-178] | – | < 1000
COc1ccccc1-c1cccc(Nc2ncc3ccc4sc(C(=O)N5CCNCC5)cc4c3n2)c1 [Compound V-91] | – | < 1000
CS(=O)(=O)c1cccc(Nc2ncc3ccc4sc(C(=O)NCc5ccccc5)cc4c3n2)c1 [Compound V-129] | – | < 1000
CCN(CCN(C)C)C(=O)c1cc2c(ccc3cnc(Nc4cccc(S(C)(=O)=O)c4)nc32)s1 [Compound V-157] | – | < 1000
CS(=O)(=O)c1cccc(Nc2ncc3ccc4sc(C(=O)NCC5CCNC5)cc4c3n2)c1 (stereo not shown) [Compound V-146] | – | < 1000
CN(CCO)C(=O)c1cc2c(ccc3cnc(Nc4cccc(S(C)(=O)=O)c4)nc32)s1 [Compound V-152] | – | < 1000
CC(C)(C)OC(=O)NC1CCN(C(=O)c2cc3c(ccc4cnc(Nc5cccc(F)c5)nc43)s2)C1 (stereo not shown) [Compound V-63] | – | < 1000
CN1CCN(C(=O)c2cc3c(ccc4cnc(Nc5cccc(Cc6ccccc6)c5)nc43)s2)CC1 [Compound V-86] | – | < 1000
CC(C)(C)c1cccc(Nc2ncc3ccc4sc(C(=O)NCC5CCNC5)cc4c3n2)c1 (stereo not shown) [Compound V-108] | – | < 1000
COC[C@H]1CCCN1C(=O)c1cc2c(ccc3cnc(Nc4cccc(S(C)(=O)=O)c4)nc32)s1 [Compound V-155] | – | < 1000
CN1CCN(C(=O)c2ccc(Nc3ncc4ccc5sc(C(=O)N6CCNCC6)cc5c4n3)cc2)CC1 [Compound V-122] | – | < 1000
O=C(c1cc2c(ccc3cnc(Nc4cccc(-c5cccnc5)c4)nc32)s1)N1CCNCC1 [Compound V-94] | – | < 1000
CC(=O)N1CCN(C(=O)c2cc3c(ccc4cnc(Nc5cccc(C(C)(C)C)c5)nc43)s2)CC1 [Compound V-105] | – | < 1000
O=C(c1cc2c(ccc3cnc(Nc4ccc(N5CCOCC5)cc4)nc32)s1)N1CCNCC1 [Compound V-98] | – | < 1000
CC(=O)N1CCCN(C(=O)c2cc3c(ccc4cnc(Nc5cccc(S(C)(=O)=O)c5)nc43)s2)CC1 [Compound V-138] | – | < 1000

Structure (SMILES) | Ki (Itk [1]) [nM] | Ki (Itk [2]) [nM]
CS(=O)(=O)c1cccc(Nc2ncc3ccc4sc(C(=O)N5CCC(N)C5)cc4c3n2)c1 (stereo not shown) [Compound V-101] | – | < 1000
CS(=O)(=O)c1cccc(Nc2ncc3ccc4sc(C(=O)NC5(CO)CCCC5)cc4c3n2)c1 [Compound V-132] | – | < 1000
CC(C)(C)c1cccc(Nc2ncc3ccc4sc(C(=O)N5CCNCC5)cc4c3n2)c1 [Compound V-79] | – | < 1000
Nc1ccc(CCNc2ncc3ccc4sc(C(=O)N5CCNCC5)cc4c3n2)cc1 [Compound V-165] | – | < 1000
CS(=O)(=O)c1cccc(Nc2ncc3ccc4sc(C(=O)NCCO)cc4c3n2)c1 [Compound V-133] | – | < 1000
NC1CCN(C(=O)c2nc3ccc4cnc(Nc5cccc(S(N)(=O)=O)c5)nc4c3s2)CC1 [Compound V-176] | – | < 1000
O=C(c1cc2c(ccc3cnc(N[C@H]4C[C@@H]4c4ccccc4)nc32)s1)N1CCNCC1 [Compound V-127] | – | < 1000
O=C(c1cc2c(ccc3cnc(NCCc4ccccc4Cl)nc32)s1)N1CCNCC1 [Compound V-162] | – | < 1000
O=C(c1cc2c(ccc3cnc(Nc4cccnc4)nc32)s1)N1CCNCC1 [Compound V-117] | – | < 1000
Cc1ccsc1-c1cccc(Nc2ncc3ccc4sc(C(=O)N5CCNCC5)cc4c3n2)c1 [Compound V-95] | – | < 1000
O=C(c1cc2c(ccc3cnc(Nc4ccncc4)nc32)s1)N1CCNCC1 [Compound V-116] | – | < 1000
CC(C)(C)c1cccc(Nc2ncc3ccc4sc(C(=O)N5CC[C@H](N)C5)cc4c3n2)c1 [Compound V-110] | – | < 1000
CS(=O)(=O)c1cccc(Nc2ncc3ccc4sc(C(=O)N5CCNCC5)cc4c3n2)c1 [Compound V-100] | – | < 1000
CC(C)(C)c1cccc(Nc2ncc3ccc4sc(C(=O)N5CCOCC5)cc4c3n2)c1 [Compound V-55] | – | < 1000
O=C(CCN1CCCCC1)Nc1cccc(Nc2ncc3ccc4sc(C(=O)N5CCOCC5)cc4c3n2)c1 [Compound V-67] | – | < 1000
CN1CCN(CCC(=O)Nc2cccc(Nc3ncc4ccc5sc(C(=O)N6CCOCC6)cc5c4n3)c2)CC1 [Compound V-70] | – | < 1000
CC(C)c1cccc(Nc2ncc3ccc4sc(C(=O)N5CCC(N)C5)cc4c3n2)c1 (stereo not shown) [Compound V-82] | – | < 1000
O=C(c1cc2c(ccc3cnc(NCCCc4ccccc4)nc32)s1)N1CCNCC1 [Compound V-170] | – | < 1000
CC(=O)N1CCc2ccc(Nc3ncc4ccc5sc(C(=O)N6CCNCC6)cc5c4n3)cc21 [Compound V-166] | – | < 1000
Cc1cccc(C)c1-c1cccc(Nc2ncc3ccc4sc(C(=O)N5CCNCC5)cc4c3n2)c1 [Compound V-92] | – | < 1000
O=C(c1cc2c(ccc3cnc(Nc4cccc(-c5ccsc5Cl)c4)nc32)s1)N1CCNCC1 [Compound V-97] | – | < 1000
CN(C)C(=O)c1ccc(Nc2ncc3ccc4sc(C(=O)N5CCNCC5)cc4c3n2)cc1 [Compound V-121] | – | < 1000
CS(=O)(=O)c1cccc(Nc2ncc3ccc4sc(C(=O)NC5CCOCC5)cc4c3n2)c1 [Compound V-150] | – | < 1000
NC1CCN(C(=O)c2cc3c(ccc4cnc(Nc5cccc(Cc6ccccc6)c5)nc43)s2)C1 (stereo not shown) [Compound V-88] | – | < 1000
O=C(c1cc2c(ccc3cnc(Nc4ccc(N5CCNCC5)cc4)nc32)s1)N1CCNCC1 [Compound V-115] | – | < 1000
CC(C)(C)c1cccc(Nc2ncc3ccc4sc(C(=O)N5CCC(N)C5)cc4c3n2)c1 (stereo not shown) [Compound V-72] | – | < 1000
